Laboratory results from US20220313780A1, “METHODS AND COMPOSITIONS FOR TREATING INFLAMMATORY CONDITIONS” (THE SCRIPPS RESEARCH INSTITUTE, priority 2019, published 2022).

Test system: IL-1β
Experiment: IL-1β release (Quantikine ELISA) from THP1 cells treated with LPS and ATP
Assay type: cell-based, human
Settings: APC 4 μg/mL, TR47 50 μM, P3R 50 μM or TR47/P3R 8 nM & 500 nM for 1 hour before LPS and ATP
Protocol: THP1 cells were plated at a final concentration of 1×10^6/mL in 96 well plates and incubated with PMA (0.5 μM) for 3 hours 37° C. in supplemented RPMI. Media was subsequently changed every 24 hours for 3 days. Selected wells were treated with APC (4 μg/mL), TR47 (50 μM), P3R (50 μM), or TR47/P3R (8 nM & 500 nM, respectively) for 1 hour, washed with DPBS, and incubated with LPS (1 μg/mL) for 3 hours at 37° C. in serum-free RPMI. Cells were washed with DPBS and incubated with ATP (5 mM) in the presence or absence of 10 μM YVAD (caspase 1 inhibitor) for 45 minutes, and the resulting cell supernatant was used in the IL-1(3 Quantikine ELISA following manufacturer's (R&D) directions measuring absorbance, and the concentration of IL-1(3 was calculated following measurement of the standard curve. Data points represent mean±SEM of at least 3 independent experiments. *P<0.05 (vs. LPS+ATP).
[…]. THP1 cells were plated at a final concentration of 1×10^6/mL in 96 well plates and incubated with PMA (0.5 μM) for 3 hours 37° C. in supplemented RPMI. […] Cell supernatants were carefully collected and frozen until assayed using the IL-1β Quantikine ELISA following the manufacturer's (R&D Systems) directions, measuring absorbance. The concentration of IL-1β was calculated following measurement of the standard curve according to the manufacturer's directions.

| Sequence | generation and release of IL-1β |
| --- | --- |
| GAPPNSFEEFPFSALEGWTGATIT [P3R, PAR3-derived 24-mer peptide] | significantly suppressed |
| NPNDKYEPFWEDEEKNESGL [TR47, PAR1-derived 20 amino acid peptide] | significantly suppressed |
